This is an account of results in US5565568A, “2-acylaminopropanamides as tachykinin receptor antagonists” (Eli Lilly and Company, priority 1995, dated 1996).

The target in one experiment is T1, NK-1 receptor (Homo sapiens, UniProt P25103).
T1 construct: In this assay an aliquot of IM9 cells; endogenous in cells; host or cells: IM9 cells
Put plainly: NK-1 Receptor Binding Assay (125I-labeled substance P, IM9 cells). The note with it: inhibition of 125I-substance P binding to IM9 cells, 45 minutes at 4° C.; certain values may be average of more than one experiment. Here is the method:
(§1) The biological activity of the compounds of the present invention is evaluated employing an initial screening assay which rapidly and accurately measured the binding of the tested compound to known NK-1 and NK-2 receptor sites. Assays useful for evaluating tachykinin receptor antagonists are well known in the art. See, e.g., J. Jukic, et al., Life Sciences, 49:1463-1469 (1991); N. Kucharczyk, et al., Journal of Medicinal Chemistry, 36:1654-1661 (1993); N. Rouissi, et al., Biochemical and Biophysical Research Communications, 176:894-901 (1991).
NK-1 Receptor Binding Assay
Radioreceptor binding assays are performed using a derivative of a previously published protocol. D. G. Payan, et al., Journal of Immunology, 133:3260-3265 (1984). In this assay an aliquot of IM9 cells (1×10^6 cells/tube in […] medium supplemented with 10% fetal calf serum) is incubated with 20 pM ^125 I-labeled substance P in the presence of increasing competitor concentrations for 45 minutes at 4° C.
The IM9 cell line is a well-characterized cell line which is readily available to the public. See, e.g., Annals of the New York Academy of Science, 190: 221-234 (1972); Nature (London), 251:443-444 (1974); Proceedings of the National Academy of Sciences (USA), 71:84-88 (1974). These cells are routinely cultured in RPMI 1640 supplemented with 50 μg/ml gentamicin sulfate and 10% fetal calf serum.
The reaction is terminated by filtration through a glass fiber filter harvesting system using filters previously soaked for 20 minutes in 0.1% polyethylenimine. Specific binding of labeled substance P is determined in the presence of 20 nM unlabeled ligand.
(§2) Column 1 provides the example number of the test antagonist compound as detailed supra. The next columns define the concentration of the test compound (in nanomolar quantities) which inhibits fifty percent of the binding of the appropriate neurokinin, as defined in the column heading. Certain values may represent the average of more than one experiment.

The target in another experiment is T2, human NK-2 receptor (Homo sapiens, UniProt P21452).
T2 construct: expressed in transfected cells; host or cells: CHO-hNK-2R cells (membranes)
T2 sequence (P21452 1-398): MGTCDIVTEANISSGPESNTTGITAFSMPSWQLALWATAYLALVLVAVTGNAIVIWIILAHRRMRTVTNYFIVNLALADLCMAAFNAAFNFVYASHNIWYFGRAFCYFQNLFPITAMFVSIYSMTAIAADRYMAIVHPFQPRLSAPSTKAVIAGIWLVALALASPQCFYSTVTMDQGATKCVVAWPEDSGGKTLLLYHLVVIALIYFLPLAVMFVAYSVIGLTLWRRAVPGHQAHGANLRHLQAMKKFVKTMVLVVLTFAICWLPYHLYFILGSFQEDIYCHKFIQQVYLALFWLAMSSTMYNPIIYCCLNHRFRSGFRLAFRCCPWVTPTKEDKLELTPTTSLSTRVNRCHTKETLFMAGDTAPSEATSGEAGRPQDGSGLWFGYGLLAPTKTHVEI
Put plainly: NK-2 Receptor Binding Assay ([125I]iodohistidyl-neurokinin A, CHO-hNK-2R membranes). The note with it: inhibition of [125I]iodohistidyl-neurokinin A binding, 1 hour at room temperature, certain values may be average of more than one experiment. The protocol: as §1
NK-2 Receptor Binding Assay
The CHO-hNK-2R cells, a CHO-derived cell line transformed with the human NK-2 receptor, expressing about 400,000 such receptors per cell, are grown in 75 cm^2 flasks or roller bottles in minimal essential medium (alpha modification) with 10% fetal bovine serum. The gene sequence of the human NK-2 receptor is given in N. P. Gerard, et al., Journal of Biological Chemistry, 265:20455-20462 (1990).
For preparation of membranes, 30 confluent roller bottle cultures are dissociated by washing each roller bottle with 10 ml of Dulbecco's phosphate buffered saline (PBS) without calcium and magnesium, followed by addition of 10 ml of enzyme-free cell dissociation solution (PBS-based, from Specialty Media, Inc.). After an additional 15 minutes, the dissociated cells are pooled and centrifuged at 1,000 RPM for 10 minutes in a clinical centrifuge. Membranes are prepared by homogenization of the cell pellets in 300 ml 50 mM Tris buffer, pH 7.4 with a Tekmar® homogenizer for 10-15 seconds, followed by centrifugation at 12,000 RPM (20,000 x g) for 30 minutes using a Beckman JA-14® rotor. The pellets are washed once using the above procedure. and the final pellets are resuspended in 100-120 ml 50 mM Tris buffer, pH 7.4, and 4 ml aliquots stored frozen at -70° C. The protein concentration of this preparation is 2 mg/ml.
For the receptor binding assay, one 4-ml aliquot of the CHO-hNK-2R membrane preparation is suspended in 40 ml of assay buffer containing 50 mM Tris, pH 7.4, 3 mM manganese chloride, 0.02% bovine serum albumin (BSA) and 4 μg/ml chymostatin. A 200 μl volume of the homogenate (40 μg protein) is used per sample. The radioactive ligand is [^125 I]iodohistidyl-neurokinin A (New England Nuclear, NEX-252), 2200 Ci/mmol. The ligand is prepared in assay buffer at 20 nCi per 100 μl; the final concentration in the assay is 20 pM. Non-specific binding is determined using 1 μM eledoisin. Ten concentrations of eledoisin from 0.1 to 1000 nM are used for a standard concentration-response curve.
All samples and standards are added to the incubation in 10 μl dimethylsulfoxide (DMSO) for screening (single dose) or in 5 μl DMSO for IC50 determinations. The order of additions for incubation is 190 or 195 μl assay buffer, 200 μl homogenate, 10 or 5 μl sample in DMSO, 100 μl radioactive ligand. The samples are incubated 1 hour at room temperature and then filtered on a cell harvester through filters which had been presoaked for two hours in 50 mM Tris buffer, pH 7.7, containing 0.5% BSA. The filter is washed 3 times with approximately 3 ml of cold 50 mM Tris buffer, pH 7.7. The filter circles are then punched into 12×75 mm polystyrene tubes and counted in a gamma counter.
as §2

The test system of another experiment is human erythrocytes. The note with it: Arzneim-Forsch, 32(I):684-685 (1982); in vitro; cited from earlier work.
For experiment [1], the system named is glucose transport in human erythrocytes. The note with it: Arzneim-Forsch, 32(I):684-685 (1982); in vitro; cited from earlier work.
The next experiment has as its system benzodiazepine receptor. The note with it: Biochemical Pharmacology, 30:3016-3019 (1981); cited from earlier work.
The test system of a further experiment is rat alpha-fetoprotein. The note with it: Journal of Steroid Biochemistry, 16:503-507 (1982); in vitro; cited from earlier work.

Structures can show the parent of a compound that is named as a salt.

T1 sequence (P25103 whole entry): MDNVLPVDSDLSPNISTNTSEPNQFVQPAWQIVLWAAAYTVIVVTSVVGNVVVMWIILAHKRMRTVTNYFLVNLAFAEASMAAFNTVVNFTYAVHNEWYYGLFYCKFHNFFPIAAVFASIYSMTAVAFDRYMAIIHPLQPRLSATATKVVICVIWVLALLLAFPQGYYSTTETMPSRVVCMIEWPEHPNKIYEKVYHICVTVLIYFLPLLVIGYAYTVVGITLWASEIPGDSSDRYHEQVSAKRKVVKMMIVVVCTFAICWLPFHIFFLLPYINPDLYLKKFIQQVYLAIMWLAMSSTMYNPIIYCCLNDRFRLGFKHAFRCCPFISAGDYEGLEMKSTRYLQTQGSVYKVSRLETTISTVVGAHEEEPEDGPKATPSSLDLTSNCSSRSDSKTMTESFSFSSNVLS

One may read the IC50 as the point on the concentration scale where inhibition reaches its midpoint. Lower therefore signals greater potency. For `O=C(CN1CCN(c2ccccc2)CC1)NC(Cc1c[nH]c2ccccc12)C(=O)NCc1ccc(Cl)cc1` (centres unmarked) [Example 17], the 50% inhibitory concentration (IC50) at NK-1 receptor and on human NK-2 receptor was 210 nM in each case.
Turning to `O=C(CN1CCN(c2ccccc2)CC1)NC(Cc1c[nH]c2ccccc12)C(=O)NCc1ccccc1` (centres unmarked) [Example 16], the IC50 turned out to be 140 nM on NK-1 receptor and 430 nM on human NK-2 receptor.
On the same counts, the results for `COc1ccccc1CNC(=O)C(Cc1c[nH]c2ccccc12)NC(=O)CN1CCN(c2ccccc2)CC1` (centres unmarked) [Example 14] are 67 nM and 650 nM.
On the same counts, the results for `CN1CCN(CC(=O)NC(Cc2c[nH]c3ccccc23)C(=O)NCc2ccccc2Cl)CC1` (centres unmarked) [Example 8] are 78 nM and 3400 nM.
On the same counts, the results for `O=C(CN1CCN(Cc2ccccc2)CC1)NC(Cc1c[nH]c2ccccc12)C(=O)NCc1ccccc1Cl` (centres unmarked) [Example 13, N-(2-chlorobenzyl)-3-(1H-indol-3-yl)-2-[(4-benzylpiperazin-1-yl)acetyl]amino]propanamide dihydrochloride salt] are 34 nM and 240 nM.
For `CC(N)(C(=O)OCc1ccccc1)c1c[nH]c2ccccc12` (centres unmarked) [benzyl (2-(3-indolyl)-2-aminopropionate], in the experiment with human erythrocytes, the antisickling activity result was “antisickling agent”. Further, the “inhibition of glucose transport in human erythrocytes” value in experiment [1] is recorded as “inhibitor of glucose transport”.
Take `O=C(CN1CCN(c2ccccc2)CC1)NC(Cc1c[nH]c2ccccc12)C(=O)NCc1ccccc1Cl` (centres unmarked) [Example 9]: the IC50 at NK-1 receptor turned out to be 30 nM; at human NK-2 receptor it was 240 nM.
On the same counts, the results for `O=C(CN1CC(=O)N(Cc2ccccc2)CC1=O)NC(Cc1c[nH]c2ccccc12)C(=O)NCc1ccccc1Cl` (centres unmarked) [Example 6] are 41 nM and 82 nM.
On the same counts, the results for `O=C1CN(CC(=O)NC(Cc2c[nH]c3ccccc23)C(=O)NCc2ccccc2Cl)C(=O)CN1` (centres unmarked) [Example 2] are 230 nM and 1500 nM.
Consider `CN1CC(=O)N(CC(=O)NC(Cc2c[nH]c3ccccc23)C(=O)NCc2ccccc2Cl)CC1=O` (centres unmarked) [Example 18], for which the IC50 amounted to 95 nM at NK-1 receptor and 3100 nM on human NK-2 receptor.
On the same counts, the results for `O=C(CN1CCC(Cc2ccccc2)CC1)NC(Cc1c[nH]c2ccccc12)C(=O)NCc1ccccc1Cl` (centres unmarked) [Example 1, N-(2-chlorobenzyl)-3-(1H-indol-3-yl)-2-[(4-benzylpiperidin-1-yl)acetyl]amino]propanamide hydrochloride salt] are 290 nM and 330 nM.
`CN(Cc1ccccc1)C(=O)C(Cc1c[nH]c2ccccc12)NC(=O)CN1CCN(c2ccccc2)CC1` (centres unmarked) [Example 15] displayed an IC50 at NK-1 receptor of 180 nM.
Consider `O=C(CN1CCCCC1)NC(Cc1c[nH]c2ccccc12)C(=O)NCc1ccccc1Cl` (centres unmarked) [Example 7], for which the IC50 on NK-1 receptor was 730 nM; at human NK-2 receptor, 2200 nM.
At human NK-2 receptor, `O=C(CN1CC(=O)N(Cc2ccccc2)CC1=O)NC(Cc1c[nH]c2ccccc12)C(=O)Nc1ccccc1` (centres unmarked) [Example 4] showed an IC50 of 2100 nM.
Same read-out and setting: the result for `O=C(CN1CC(=O)N(Cc2ccccc2)CC1=O)NC(Cc1c[nH]c2ccccc12)C(=O)NCc1ccccc1` (centres unmarked) [Example 3] reads 1500 nM.
As to `O=C(CN1CCC(c2ccccc2)CC1)NC(Cc1c[nH]c2ccccc12)C(=O)NCc1ccccc1Cl` (centres unmarked) [Example 10], the IC50 worked out at 140 nM at NK-1 receptor and 570 nM on human NK-2 receptor.
In the case of `O=C(CN1CC(=O)N(Cc2ccccc2)CC1=O)NC(Cc1c[nH]c2ccccc12)C(=O)NCCc1ccccc1` (centres unmarked) [Example 5], the IC50 on human NK-2 receptor was 740 nM.
Take `NC(Cc1c[nH]c2ccccc12)C(=O)OCc1ccccc1` (centres unmarked) [benzyl 3-(3-indolyl)-2-aminopropionate]: the “Inhibition of benzodiazepine receptor binding in vitro” value in the experiment with benzodiazepine receptor is reported as “Inhibition”. Besides, the “inhibition of estrogen binding to rat alpha-fetoprotein” value in the experiment on rat alpha-fetoprotein was “weak inhibition”.
